In assay [1] the target is human vasopressin V1a receptor (Homo sapiens, UniProt P37288). As to the kind of experiment: Receptor binding study, [3H]AVP displacement on CHO cell membranes, human V1a. The conditions noted are these: [3H]AVP displacement, CHO cell membrane, 25° C., one hour; read-out: Human V1a Ki. How it is done: (§1) (ii) Receptor Binding Study
(§2) Assay was performed using 50 mM of Tris-HCl (pH=7.4) (total amount: 250 μL) (buffer composition: containing […] of MgCl2 and 0.1% BSA), and incubation was performed at room temperature (25° C.) for one hour. After incubation, suck filtration was immediately performed and reaction was completed when the membrane sample was collected on a glass fiber filter fitted with the microplate. After the filter was washed with an ice-cold Tris-HCl buffer (50 mM Tris-HCl, 10 mM MgCl2, pH 7.4), radioactivity measurement was performed. Nonspecific binding was determined using nonradioactive-labeled AVP (1 μM).

Assay [2] deals with human vasopressin V2 receptor (Homo sapiens, UniProt P30518). As to the kind of experiment: Receptor binding study, [3H]AVP displacement on CHO cell membranes, human V2. As to conditions: [3H]AVP displacement, CHO cell membrane, 25° C., one hour; read-out: Human V2 Ki. Here is the method: Preparation of Chinese hamster ovary (Cho) cell which expresses human vasopressin receptor subtype and production of membrane sample of the cell was conducted according to the method of Tahara et al. (Br. J. Pharmacol., 125, 1463-1470, 1998).
Chain of human vasopressin V2 receptor (P30518 whole entry): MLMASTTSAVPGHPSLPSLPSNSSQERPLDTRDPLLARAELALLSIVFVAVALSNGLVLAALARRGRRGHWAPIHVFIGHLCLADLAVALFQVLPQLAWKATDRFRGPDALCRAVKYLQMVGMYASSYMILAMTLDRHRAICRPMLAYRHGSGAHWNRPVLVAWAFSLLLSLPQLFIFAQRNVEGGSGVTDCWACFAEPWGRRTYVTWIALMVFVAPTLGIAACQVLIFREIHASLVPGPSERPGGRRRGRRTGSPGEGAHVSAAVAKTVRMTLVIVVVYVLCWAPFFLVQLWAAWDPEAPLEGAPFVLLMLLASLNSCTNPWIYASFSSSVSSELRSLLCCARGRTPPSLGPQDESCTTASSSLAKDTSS
as §1
as §2, with “In saturation binding experiment, the membrane sample and [^3H]AVP of several concentrations (0.125 nM to 4.0 nM) were mixed and incubated in microplate wells. In displacement experiment, [^3H]AVP of constant concentrations (0.5 nM to 1.0 nM) and the membrane sample were mixed with Compound A of several concentrations, and incubation was performed. Assay” for “Assay”

The structures appear in SMILES notation.

Chain of human vasopressin V1a receptor (P37288 whole entry): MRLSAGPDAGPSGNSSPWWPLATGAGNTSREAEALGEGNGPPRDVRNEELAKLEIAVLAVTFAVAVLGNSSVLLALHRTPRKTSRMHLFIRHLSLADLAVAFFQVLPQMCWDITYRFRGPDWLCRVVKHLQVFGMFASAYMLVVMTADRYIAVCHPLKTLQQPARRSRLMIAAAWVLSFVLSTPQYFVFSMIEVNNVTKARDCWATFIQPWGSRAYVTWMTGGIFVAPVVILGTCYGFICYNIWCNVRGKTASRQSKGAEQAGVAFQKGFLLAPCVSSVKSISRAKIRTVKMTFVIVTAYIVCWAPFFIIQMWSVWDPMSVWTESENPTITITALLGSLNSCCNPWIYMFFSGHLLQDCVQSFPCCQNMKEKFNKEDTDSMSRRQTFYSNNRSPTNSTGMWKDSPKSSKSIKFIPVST

As a reminder, the Ki is the dissociation constant of the complex between target and ligand, obtained from inhibition or displacement. On to `CCCN(C)CCCOc1cc(C(=O)N2CC[C@H](C)Nc3ccccc32)ccc1-c1ccc(NC)cc1` [Example 105, N-methyl-2′-[3-[methyl(propyl)amino]propoxy]-4′-[[(4S)-4-methyl-2,3,4,5-tetrahydro-1H-1,5-benzodiazepin-1-yl]carbonyl][1,1′-biphenyl]-4-amine], for which the results for the Ki in assay [1] and in assay [2] were 0.16 nM and 54 nM, respectively.

As to `C[C@H]1CCN(C(=O)c2ccc(-c3ccc4[nH]ccc4c3)c(OCCCCN3CCN(C)CC3)c2)c2ccccc2N1` [Example 103], the Ki worked out at 0.24 nM in assay [1] and 3.6 nM in assay [2].

For the compound `C[C@H]1CCN(C(=O)c2ccc(-c3ccc4[nH]ccc4c3)c(OCCN3CCOCC3)c2)c2ccccc2N1` [Example 59, (4S)-1-[4-(1H-indol-5-yl)-3-[2-(4-morpholinyl)ethoxy]benzoyl]-4-methyl-2,3,4,5-tetrahydro-1H-1,5-benzodiazepine], the Ki in assay [1] was 0.23 nM; in assay [2], 0.89 nM.

`C[C@H]1CCN(C(=O)c2ccc(-c3ccc4[nH]ccc4c3)c(OCCCN3CCC(N(C)C)CC3)c2)c2ccccc2N1` [Example 123]: the inhibition constant Ki stood at 0.38 nM in assay [1] and 9.9 nM in assay [2].

On to `C[C@H]1CCN(C(=O)c2ccc(-c3ccc4[nH]ccc4c3)c(OCCCN3CCCCC3)c2)c2ccccc2N1` [Example 71, (4S)-1-[4-(1H-indol-5-yl)-3-[3-(1-piperidinyl)propoxy]benzoyl]-4-methyl-2,3,4,5-tetrahydro-1H-1,5-benzodiazepine], for which the Ki in assay [1] came to 0.16 nM; in assay [2] it was 11 nM.

For the compound `C[C@H]1CCN(C(=O)c2ccc(-c3ccc4[nH]ccc4c3)c(OCCCN3CCC(N4CCOCC4)CC3)c2)c2ccccc2N1` [Example 107, (4S)-1-[4-(1H-indol-5-yl)-3-[3-[4-(4-morpholinyl)-1-piperidinyl]propoxy]benzoyl]-4-methyl-2,3,4,5-tetrahydro-1H-1,5-benzodiazepine], the inhibition constant Ki was 0.13 nM in assay [1] and 33 nM in assay [2].

For the compound `CCCN(C)CCCOc1cc(C(=O)N2CC[C@H](C)Nc3ccccc32)ccc1-c1ccc(OC(F)F)cc1` [Example 157, N-(3-[[4′-(difluoromethoxy)-4-[[(4S)-4-methyl-2,3,4,5-tetrahydro-1H-1,5-benzodiazepin-1-yl]carbonyl][1,1′-biphenyl]-2-yl]oxy]propyl]-N-methyl-N-propylamine], the inhibition constant Ki in assay [1] was 0.28 nM; in assay [2], 28 nM.

In the case of `C[C@H]1CCN(C(=O)c2ccc(-c3ccc4[nH]ccc4c3)c(OCCCN)c2)c2ccccc2N1` [Example 38, 3-[2-(1H-indol-5-yl)-5-[[(4S)-4-methyl-2,3,4,5-tetrahydro-1H-1,5-benzodiazepin-1-yl]carbonyl]phenoxy]propylamine], the figures for the inhibition constant Ki in assay [1] and in assay [2] were 0.086 nM and 11 nM, respectively.

Consider `CCCN1CCN(CCCOc2cc(C(=O)N3CC[C@@H](C)Nc4ccccc43)ccc2-c2ccc3[nH]ccc3c2)CC1` [Example 128, (4R)-1-[4-(1H-indol-5-yl)-3-[3-(4-propyl-1-piperazinyl)propoxy]benzoyl]-4-methyl-2,3,4,5-tetrahydro-1H-1,5-benzodiazepine], for which the results for the Ki in assay [1] and in assay [2] were 0.2 nM and 39 nM, respectively.

As to `CNCCCOc1cc(C(=O)N2CC[C@H](C)Nc3ccccc32)ccc1-c1ccc2[nH]ccc2c1` [Example 51, N-[3-[2-(1H-indol-5-yl)-5-[[(4S)-4-methyl-2,3,4,5-tetrahydro-1H-1,5-benzodiazepin-1-yl]carbonyl]phenoxy]propyl]-N-methylamine], the Ki in assay [1] was 0.079 nM; in assay [2], 12 nM.

As to `C[C@H]1CCN(C(=O)c2ccc(-c3ccc(N)cc3)c(OCCCN)c2)c2ccccc2N1` [Example 54, 2′-(3-aminopropoxy)-4′-[[(4S)-4-methyl-2,3,4,5-tetrahydro-1H-1,5-benzodiazepin-1-yl]carbonyl][1,1′-biphenyl]-4-amine], the Ki was found to be 0.41 nM in assay [1] and 731 nM in assay [2].

Consider `CCCCCN(C)CCCCOc1cc(C(=O)N2CC[C@H](C)Nc3ccccc32)ccc1-c1ccc2[nH]ccc2c1` [Example 174, N-[4-[2-(1H-indol-5-yl)-5-[[(4S)-4-methyl-2,3,4,5-tetrahydro-1H-1,5-benzodiazepin-1-yl]carbonyl]phenoxy]butyl]-N-methyl-1-pentaneamine], for which the inhibitory constant (Ki) was 0.35 nM in assay [1] and 11 nM in assay [2].

As to `CCCN(C)C1CCN(CCOc2cc(C(=O)N3CC[C@H](C)Nc4ccccc43)ccc2-c2ccc3[nH]ccc3c2)CC1` [Example 151, N-[1-[2-[2-(1H-indol-5-yl)-5-[[(4S)-4-methyl-2,3,4,5-tetrahydro-1H-1,5-benzodiazepin-1-yl]carbonyl]phenoxy]ethyl]-4-piperidinyl]-N-methyl-N-propylamine], the Ki in assay [1] worked out at 0.25 nM; in assay [2], 10 nM.

As for `C[C@H]1CCN(C(=O)c2ccc(-c3ccc4[nH]ccc4c3)c(C(=O)CCCCN(C)C)c2)c2ccccc2N1` [Example 158, 5-(dimethylamino)-1-[2-(1H-indol-5-yl)-5-[[(4S)-4-methyl-2,3,4,5-tetrahydro-1H-1,5-benzodiazepin-1-yl]carbonyl]phenyl]-1-pentanone], the Ki is 0.11 nM in assay [1] and 13 nM in assay [2].

As for `CC(=O)N1CCN(CCCOc2cc(C(=O)N3CC[C@H](C)Nc4ccccc43)ccc2-c2ccc3[nH]ccc3c2)CC1` [Example 73, (4S)-1-[3-[3-(4-acetyl-1-piperazinyl)propoxy]-4-(1H-indol-5-yl)]-4-methyl-2,3,4,5-tetrahydro-1H-1,5-benzodiazepine], the inhibitory constant (Ki) was found to be 0.19 nM in assay [1] and 4.6 nM in assay [2].

Consider `CCCN(C)CCCOc1cc(C(=O)N2CC[C@H](C)Nc3ccccc32)ccc1-c1ccc(NCC)c(F)c1` [Example 154, N-ethyl-3-fluoro-2′-[3-[methyl(propyl)amino]propoxy]-4′-[[(4S)-4-methyl-2,3-4,5-tetrahydro-1H-1,5-benzodiazepin-1-yl]carbonyl][1,1′-biphenyl]-4-amine], for which the Ki was found to be 0.4 nM in assay [1] and 53 nM in assay [2].

For `C[C@H]1CCN(C(=O)c2ccc(-c3ccc4[nH]ccc4c3)c(OCCCN3C(=O)CSC3=O)c2)c2ccccc2N1` [Example 100, 3-[3-[2-(1H-indol-5-yl)-5-[[(4S)-4-methyl-2,3,4,5-tetrahydro-1H-1,5-benzodiazepin-1-yl]carbonyl]phenoxy]propyl]-1,3-thiazolidine-2,4-dione], the figures for the Ki in assay [1] and in assay [2] were 0.46 nM and 3.2 nM, respectively.

On to `C[C@H]1CCN(C(=O)c2ccc(-c3ccc4[nH]ccc4c3)c(OCCN3CCN(C)CC3)c2)c2ccccc2N1` [Example 110, (4S)-1-[4-(1H-indol-5-yl)-3-[2-(4-methyl-1-piperazinyl)ethoxy]benzoyl]-4-methyl-2,3,4,5-tetrahydro-1H-1,5-benzodiazepine], for which the Ki in assay [1] came out at 0.13 nM; in assay [2], 6.5 nM.

Turning to `C[C@H]1CCN(C(=O)c2ccc(-c3ccc4[nH]ccc4c3)c(C(=O)OCCCCN(C)C)c2)c2ccccc2N1` [Example 162, 4-(dimethylamino)butyl 2-(1H-indol-5-yl)-5-[[(4S)-4-methyl-2,3,4,5-tetrahydro-1H-1,5-benzodiazepin-1-yl]carbonyl]benzoate], the Ki in assay [1] came to 0.13 nM; in assay [2], 29 nM.

For the compound `CC(=O)Nc1cc(C(=O)N2CC[C@H](C)Nc3ccccc32)ccc1-c1ccc2[nH]ccc2c1` [Example 17, N-[2-(1H-indol-5-yl)-5-[[(4S)-4-methyl-2,3,4,5-tetrahydro-1H-1,5-benzodiazepin-1-yl]carbonyl]phenyl]acetamide], the Ki turned out to be 0.13 nM in assay [1] and 11 nM in assay [2].
